This assay concerns 30 clinical strains of M. tuberculosis isolated from patients in Thailand. As to the kind of experiment: Microplate Alamar Blue assay, clinical strains. Format: cell-based. Particulars: Mycobacterium tuberculosis, including isoniazid and/or rifampin resistant strains, read-out: MICs against clinical strains of M. tuberculosis. Background: Alamar Blue is a resazurin reagent that responds to reducing activity.

As for `C=CC(OC(C)=O)c1ccc(OC(C)=O)cc1` (stereo not shown) [1′-acetoxychavicol acetate, 1′-Acetoxychavicol acetate], the MIC lay in the range of 0.1 to 0.5 µg/mL.

The values above are taken from patent US20020192262A1, “1'-Acetoxychavicol acetate for tuberculosis treatment” (National Science and Technology Development Agency, priority 2001, published 2002).
